Reference: patent EP4342530A1, “SORTILIN MODULATORS” (Insusense ApS, priority 2022, dated 2024)

Assays:
Sortilin = target: T1, Sortilin (Homo sapiens, UniProt Q99523); assay: Creoptix (GCI) binding kinetics, human Sortilin; conditions: Species Human, screened at 1 µM, 25 degrees Celsius
T1 construct: purchased Bio-Techne Ltd 3154-ST-050
T1 sequence (Q99523 78-755 limits assumed): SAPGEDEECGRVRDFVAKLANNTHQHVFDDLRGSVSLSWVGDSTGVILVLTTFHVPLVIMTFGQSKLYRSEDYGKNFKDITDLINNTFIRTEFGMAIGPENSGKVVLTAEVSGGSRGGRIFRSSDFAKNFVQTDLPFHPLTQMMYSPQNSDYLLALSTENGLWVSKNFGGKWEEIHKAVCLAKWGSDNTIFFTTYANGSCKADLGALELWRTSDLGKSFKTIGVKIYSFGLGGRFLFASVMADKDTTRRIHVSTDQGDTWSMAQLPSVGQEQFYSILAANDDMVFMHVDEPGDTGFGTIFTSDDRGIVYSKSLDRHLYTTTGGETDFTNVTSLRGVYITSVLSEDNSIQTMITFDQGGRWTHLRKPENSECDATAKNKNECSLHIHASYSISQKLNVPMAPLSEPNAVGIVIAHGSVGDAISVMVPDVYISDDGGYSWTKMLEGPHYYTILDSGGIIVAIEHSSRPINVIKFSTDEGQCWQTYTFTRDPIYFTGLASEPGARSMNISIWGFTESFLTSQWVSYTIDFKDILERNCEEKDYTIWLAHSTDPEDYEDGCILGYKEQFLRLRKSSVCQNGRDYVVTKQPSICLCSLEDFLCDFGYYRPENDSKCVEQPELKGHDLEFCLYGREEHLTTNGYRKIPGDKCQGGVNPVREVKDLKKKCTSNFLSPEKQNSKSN
Description: Creoptix (GCI) method - using SEQ ID NO.4 (Murine sortillin)
A protein, bound to a surface, is bathed in a solution containing potential ligands giving rise to binding kinetics to generate Kon and Koff rates, as well as a Kd.
All buffers described were filtered using a 0.2µm filter (Product number: 10300461, Nalgene) and degassed for 15 minutes prior to use.
A flow cell temperature of 25 degrees Celsius was used throughout the experiment.
A 4PCH chip was conditioned across all flow cells using 0.2 X concentration running buffer (running buffer composition: 1XHBS-N, pH 7.4, 3.4 mM EDTA, 1% DMSO) using pre-set conditioning wizard (WAVE control software) injecting: 0.1 M borate, 1 M NaCl (pH 9) followed by three start-up injections of 0.2 X running buffer.
A buffer exchange was performed and 1x running buffer (1XHBS-N, pH 7.4, 3.4 mM EDTA, 1% DMSO) used during the immobilisation procedure: An initial injection of EDC/NHS (mixed in 1:1 ratio) was performed across all 4-flow cells to activate the surface for amine coupling of ligands.
Recombinant Sortilin aliquots were thawed quickly by hand and centrifuged at 13,300 rpm for 10 minutes. A 10 µg/ml protein solution was then made in pH 5.0 acetate and injected once for 20 minutes over flow-cells 2, 3 and 4 for human, human (flow cells 2 & 3), and mouse Sortilin respectively followed by a 60 second dissociation period.
A final 7-minute passivation injection of 50 mM tris was used across all flow cells.
A flow rate of 10 µl/min was used for all conditioning and immobilisation cycles.
Compounds were screened at 1 µM using the in-built 'intermediate binders' settings: 100 ul/min, 45 s baseline, 25 s association, 300 s dissociation, with blanks every 5th sample and a DMSO correction (1.5 % DMSO at the start and end of the experiment as well as every 20 cycles. An acquisition rate of 10 Hz was used throughout the experiment.
Compounds were screened at a final assay concentration of 1 µM and a final DMSO concentration was 1 %. To achieve this, compounds were diluted in DMSO from 10 mM stocks to 100 µM (100 x final assay concentration) then diluted 1:100 in running buffer which contained no DMSO to establish a final assay concentration of compound of 1 µM and a final DMSO concentration of 1 % [DMSO].
Compounds and DMSO were mixed by plate shaking at 1000 rpm for 60 seconds using a Bioshake instrument.
A flow rate of 100 µl/min was used throughout the experiment.
Data was evaluated using the RAPID kinetic analysis tool in the GCI WAVE_control software with data fitted using a standard 1:1 kinetic BioModel.

[1] = Brain homogenate binding by rapid equilibrium dialysis, rat brain; assay type: in vitro ADME; conditions: pH 7.4, 37 °C, dilution factor 5, read-out: Unbound (Fu, %)
Description: Plasma protein binding and brain homogenate binding for study compounds in mouse, dog, and rat by rapid equilibrium dialysis
In practice, unbound fractions in plasma and brain tissue were assessed using rapid equilibrium dialysis in vitro. Separately a pharmacokinetic study was run in vivo whereby a dose of the compound of interest was given at T=0 hours and at subsequent timepoints (eg 0.5, 1 and 4 hours) plasma and separately brain samples were analysed for total concentration of the compound of interest. These total concentrations could then be adjusted with the unbound fraction to give the unbound concentrations in the plasma and brain.
The test compounds were incubated in plasma and brain homogenate from the relevant species at 37 °C in RED device with inserts (8K MWCO, Thermo scientific) for 4 hours at 5 µM in triplicates. 350 µL of 150 mM phosphate buffered saline (PBS, pH 7.4) was used as the receiver side solutions. […] After 10-minute centrifugation at 13 200 rpm, the sample supernatants were analysed with an LC-MS/MS, to obtain the unbound fraction of the test compound (Fub). The unbound fraction was calculated from the peak area ratios obtained for each matrix: Fub = CPBS /Cplasma; [formula] where CPBS and Cplasma are the analyte concentrations in PBS (receiver) and plasma (donor), respectively. […]

CC(C)(C)CC[C@H](NCc1ccc2c(c1)COCC2)C(=O)O [Example 3, (S)-2-((isochroman-7-ylmethyl)amino)-5,5-dimethylhexanoic acid]
Kd (Sortilin; Form of Compound Free acid): 237 nM | Kd (Sortilin; Form of Compound Mesylate salt): 52 nM | fraction unbound at 4 h, 5 µM [1]: 0.371

C[C@@H](N[C@@H](CCC(C)(C)C)C(=O)O)c1ccc2c(c1)OCCC2 [Example 9]
Kd (Sortilin; Form of Compound Free acid): 227 nM | Kd (Sortilin; Form of Compound Mesylate salt): 64.9 nM

C[C@H](N[C@@H](CCC(C)(C)C)C(=O)O)c1ccc2c(c1)CCCO2 [Example 50]
Kd (Sortilin; Form of Compound Free acid): 120 nM | Kd (Sortilin; Form of Compound Mesylate salt): 221 nM

C[C@@H](N[C@@H](CCC(C)(C)C)C(=O)O)c1ccc2c(c1)CCCO2 [Example 52]
Kd (Sortilin; Form of Compound Free acid): 384 nM | Kd (Sortilin; Form of Compound Mesylate salt): 133 nM
